Columns and labels:
[1] = refractive index (Na D-line) (dimensionless); xn = mol fraction of the nth substance listed; conditions: 101 kPa, Liquid, Standard Abbe refractometry
[2] = relative permittivity at various frequencies (dimensionless); xn = mol fraction of the nth substance listed; conditions: 101 kPa, Liquid, Frequency=1 MHz, Parallel plate capacitor

CCCCCCN [1-hexanamine] + CCCO
Conditions | refractive index, 293.15 K | refractive index, 298.15 K | refractive index, 303.15 K | relative permittivity, 293.15 K | relative permittivity, 298.15 K | relative permittivity, 303.15 K
[1], x2 = 0 | 1.41808 | 1.41563 | 1.41321 | – | – | –
[1], x2 = 0.052 | 1.41775 | 1.41529 | 1.41292 | – | – | –
[1], x2 = 0.1015 | 1.41735 | 1.41492 | 1.41258 | – | – | –
[1], x2 = 0.1475 | 1.41693 | 1.41452 | 1.41223 | – | – | –
[1], x2 = 0.2108 | 1.41627 | 1.41393 | 1.4116 | – | – | –
[1], x2 = 0.2983 | 1.41509 | 1.41276 | 1.41049 | – | – | –
[1], x2 = 0.3967 | 1.41351 | 1.4112 | 1.40878 | – | – | –
[1], x2 = 0.4998 | 1.41113 | 1.40876 | 1.40642 | – | – | –
[1], x2 = 0.604 | 1.40784 | 1.40551 | 1.40323 | – | – | –
[1], x2 = 0.6965 | 1.40408 | 1.40199 | 1.39964 | – | – | –
[1], x2 = 0.8013 | 1.39877 | 1.39675 | 1.39454 | – | – | –
[1], x2 = 0.8505 | 1.39588 | 1.39373 | 1.39168 | – | – | –
[1], x2 = 0.8953 | 1.39295 | 1.39085 | 1.38884 | – | – | –
[1], x2 = 0.9486 | 1.38914 | 1.38704 | 1.38505 | – | – | –
[2], x2 = 0 | – | – | – | 3.964 | 3.904 | 3.846
[2], x2 = 0.0708 | – | – | – | 4.411 | 4.336 | 4.263
[2], x2 = 0.1073 | – | – | – | 4.663 | 4.578 | 4.499
[2], x2 = 0.147 | – | – | – | 4.953 | 4.857 | 4.77
[2], x2 = 0.1935 | – | – | – | 5.33 | 5.222 | 5.123
[2], x2 = 0.307 | – | – | – | 6.436 | 6.286 | 6.148
[2], x2 = 0.3941 | – | – | – | 7.471 | 7.279 | 7.102
[2], x2 = 0.5056 | – | – | – | 9.113 | 8.85 | 8.605
[2], x2 = 0.6097 | – | – | – | 10.99 | 10.649 | 10.324
[2], x2 = 0.6977 | – | – | – | 12.847 | 12.426 | 12.034
[2], x2 = 0.8044 | – | – | – | 15.469 | 14.948 | 14.463
[2], x2 = 0.8406 | – | – | – | 16.431 | 15.885 | 15.354
[2], x2 = 0.8989 | – | – | – | 18.08 | 17.478 | 16.902
[2], x2 = 0.9504 | – | – | – | 19.605 | 18.955 | 18.33

CCCCCCN [1-hexanamine] + CCCCCO
Conditions | refractive index, 293.15 K | refractive index, 298.15 K | refractive index, 303.15 K | relative permittivity, 293.15 K | relative permittivity, 298.15 K | relative permittivity, 303.15 K
[1], x2 = 0 | 1.41813 | 1.41563 | 1.41324 | – | – | –
[1], x2 = 0.0472 | 1.41838 | 1.41592 | 1.4136 | – | – | –
[1], x2 = 0.1005 | 1.41862 | 1.41622 | 1.41392 | – | – | –
[1], x2 = 0.1648 | 1.41884 | 1.41649 | 1.41424 | – | – | –
[1], x2 = 0.2022 | 1.41896 | 1.4166 | 1.41438 | – | – | –
[1], x2 = 0.3102 | 1.41908 | 1.41679 | 1.41458 | – | – | –
[1], x2 = 0.3982 | 1.41895 | 1.41671 | 1.41451 | – | – | –
[1], x2 = 0.5002 | 1.41846 | 1.41623 | 1.41407 | – | – | –
[1], x2 = 0.6005 | 1.41756 | 1.41543 | 1.41329 | – | – | –
[1], x2 = 0.7122 | 1.41609 | 1.41403 | 1.41193 | – | – | –
[1], x2 = 0.7963 | 1.41463 | 1.41259 | 1.41054 | – | – | –
[1], x2 = 0.8457 | 1.41364 | 1.41164 | 1.40958 | – | – | –
[1], x2 = 0.8982 | 1.41246 | 1.41048 | 1.40844 | – | – | –
[1], x2 = 0.9362 | 1.41153 | 1.40957 | 1.40754 | – | – | –
[2], x2 = 0 | – | – | – | 3.967 | 3.905 | 3.846
[2], x2 = 0.052 | – | – | – | 4.248 | 4.176 | 4.11
[2], x2 = 0.1079 | – | – | – | 4.563 | 4.485 | 4.408
[2], x2 = 0.1601 | – | – | – | 4.876 | 4.785 | 4.701
[2], x2 = 0.2014 | – | – | – | 5.146 | 5.047 | 4.957
[2], x2 = 0.31 | – | – | – | 5.924 | 5.796 | 5.675
[2], x2 = 0.3982 | – | – | – | 6.653 | 6.494 | 6.348
[2], x2 = 0.5031 | – | – | – | 7.689 | 7.486 | 7.298
[2], x2 = 0.6013 | – | – | – | 8.827 | 8.567 | 8.319
[2], x2 = 0.6916 | – | – | – | 10.025 | 9.702 | 9.397
[2], x2 = 0.7952 | – | – | – | 11.649 | 11.246 | 10.864
[2], x2 = 0.8396 | – | – | – | 12.419 | 11.973 | 11.555
[2], x2 = 0.9006 | – | – | – | 13.582 | 13.084 | 12.61
[2], x2 = 0.9431 | – | – | – | 14.457 | 13.913 | 13.397
